Kd data for 1 compound are collected here from PMC12110821, “Polyphyllin I Inhibits the Metastasis of Cervical Cancer Through the Regulation of the β-Catenin Signaling Pathway” (International Journal of Molecular Sciences, 2025).

This experiment concerns the target T1, β-catenin (Homo sapiens, UniProt P35222).
T1 construct: gene CTNNB1; β-catenin protein (11279-H20B, Sinobiological)
T1 sequence (P35222 2-781): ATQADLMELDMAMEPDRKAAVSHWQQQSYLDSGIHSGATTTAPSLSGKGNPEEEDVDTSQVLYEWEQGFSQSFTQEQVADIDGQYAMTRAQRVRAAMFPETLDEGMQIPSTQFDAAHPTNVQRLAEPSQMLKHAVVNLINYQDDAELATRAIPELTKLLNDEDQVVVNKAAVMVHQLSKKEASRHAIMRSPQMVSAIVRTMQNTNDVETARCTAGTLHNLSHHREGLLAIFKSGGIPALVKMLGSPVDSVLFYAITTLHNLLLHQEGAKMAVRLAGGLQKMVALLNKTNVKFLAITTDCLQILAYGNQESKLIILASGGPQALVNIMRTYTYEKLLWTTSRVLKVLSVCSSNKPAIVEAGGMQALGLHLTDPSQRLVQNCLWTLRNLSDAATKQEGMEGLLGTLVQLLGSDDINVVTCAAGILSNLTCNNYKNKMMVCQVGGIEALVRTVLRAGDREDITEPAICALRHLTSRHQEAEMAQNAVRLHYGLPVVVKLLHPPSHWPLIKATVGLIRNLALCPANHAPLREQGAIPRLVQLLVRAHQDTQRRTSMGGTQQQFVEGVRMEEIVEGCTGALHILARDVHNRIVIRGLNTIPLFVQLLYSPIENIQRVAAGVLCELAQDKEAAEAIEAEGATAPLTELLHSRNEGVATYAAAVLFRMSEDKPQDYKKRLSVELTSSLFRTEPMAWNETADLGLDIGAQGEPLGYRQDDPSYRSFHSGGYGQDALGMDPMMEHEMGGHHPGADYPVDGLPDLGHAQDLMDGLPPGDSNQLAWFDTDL
Kind of experiment: SPR (Biacore T200, CM5 chip, amine-coupled β-catenin); supported by CETSA in HO-8910PM lysate. The format is binding. A general note: Surface plasmon resonance follows binding to a sensor surface in real time, without labels.

What is called Kd is a measure of binding affinity in units of concentration. `C[C@@H]1CC[C@@]2(OC1)O[C@H]1C[C@H]3[C@@H]4CC=C5C[C@@H](O[C@@H]6O[C@H](CO)[C@@H](O[C@@H]7O[C@@H](CO)[C@H](O)[C@H]7O)[C@H](O)[C@H]6O[C@@H]6O[C@@H](C)[C@H](O)[C@@H](O)[C@H]6O)CC[C@]5(C)[C@H]4CC[C@]3(C)[C@H]1[C@@H]2C` [PPI, Polyphyllin I] showed a Kd of 2.2 µM.
